Test results: paper PMC10673369, “Preliminary SAR of Novel Pleuromutilin–Polyamine Conjugates” (Microorganisms, 2023)

Experiments:
C. albicans ATCC 90028 = assay: MIC, CO-ADD antifungal assay, C. albicans; assay type: cell-based, Candida albicans; settings: for MIC: Candida albicans, ATCC90028, mean (n = 2)
Experimental: (§1) The susceptibility of bacterial strains S. aureus (ATCC 25923), E. coli (ATCC 25922), and P. aeruginosa (ATCC 27853 or PAO1) to antibiotics and compounds was determined using reported protocols. Additional antimicrobial evaluation against MRSA (ATCC 43300), Klebsiella pneumoniae (ATCC 700603), A. baumannii (ATCC 19606), Candida albicans (ATCC 90028), and Cryptococcus neoformans (ATCC 208821) was undertaken at the Community for Open Antimicrobial Drug Discovery at The University of Queensland (Australia) according to their standard protocols as reported previously. […]
(§2) 2.3. Antimicrobial Assays
(§3) The susceptibility of bacterial strains S. aureus (ATCC 25923), E. coli (ATCC 25922), and P. […]
(§4) baumannii (ATCC 19606), Candida albicans (ATCC 90028), and Cryptococcus neoformans (ATCC 208821) was undertaken at the Community for Open Antimicrobial Drug Discovery at The University of Queensland (Australia) according to their standard protocols as reported previously. […]
(§5) For the antifungal assay, fungi strains were cultured for 3 days on YPD agar at 30 °C. A yeast suspension of 1 × 106 to 5 × 10^6 CFU/mL was prepared from five colonies. These stock suspensions were diluted with yeast nitrogen base (YNB) (Becton Dickinson, 233520) broth to a final concentration of 2.5 × 10^3 CFU/mL. The compounds were serially diluted 2-fold across the wells of 96-well plates (Corning 3641, non-binding surface), with compound concentrations ranging from 0.015 to 64 µg/mL and final volumes of 50 µL, plated in duplicate. Then, 50 µL of the fungi suspension that was previously prepared in YNB broth to the final concentration of 2.5 × 10^3 CFU/mL was added to each well of the compound-containing plates, giving a final compound concentration range of 0.008 to 32 µg/mL. Plates were covered and incubated at 35 °C for 36 h without shaking. C. albicans MICs were determined by measuring the absorbance at OD530. For C. neoformans, resazurin was added at 0.006% final concentration to each well and incubated for a further 3 h before MICs were determined by measuring […]
(§6) Colistin and vancomycin were used as positive bacterial inhibitor standards for Gram-negative and Gram-positive bacteria, respectively. Fluconazole was used as a positive fungal inhibitor standard for C. albicans and C. neoformans. The antibiotics were provided in […], with 3 above and 3 below its MIC value, and plated into the first 8 wells of column 23 of the 384-well NBS plates. The quality control (QC) of the assays was determined by the antimicrobial controls and the Z'-factor (using positive and negative controls). Each plate was deemed to fulfil the quality criteria (pass QC) if the Z'- […]
(§7) inhibition at their highest concentration, and no growth inhibition at their lowest concentration.
(§8) 2.4. Determination of the MICs of Antibiotics in the Presence of Synergizing Compounds

human red blood cells = assay: Hemolytic assay; assay type: cell-based; settings: mean (n = 2)
Experimental: Hemolysis assays were conducted using reported protocols (see Supplementary File). […]
Human whole blood was washed three times with three volumes of 0.9% NaCl and then resuspended in the same solution to a concentration of 0.5 x 10^8 cells/mL, as determined by the manual cell count in a Neubauer hemocytometer. The washed cells were then added to the 384-well compound-containing plates for a final volume of 50 µL. After a 10 min shake on a plate shaker, the plates were then incubated for 1 h at 37 °C. After incubation, the plates were centrifuged at 1,000g for 10 min to pellet cells and debris; 25 µL of the supernatant was then transferred to a polystyrene 384-well assay plate. Hemolysis was determined by measuring the supernatant absorbance at […] (OD405). The absorbance was measured using a Tecan M1000 Pro monochromator plate reader. HC10 and HC50 (concentration at 10% and 50% hemolysis, respectively) were calculated by curve fitting the inhibition values vs. log (concentration) using a sigmoidal dose–response function with variable fitting values for the top, bottom, and slope. […]

[1] = Cytotoxicity assay, HEK293; assay type: cell-based; settings: human; HEK293 cells; mean (n = 2); read-out: Cytotoxicity (IC50), concentration of compound at 50% cytotoxicity
Experimental: Cytotoxicity assays were conducted using reported protocols (see Supplementary File). […]
HEK293 cells were counted manually in a Neubauer hemocytometer and plated at a density of 5,000 cells/well into each well of the 384-well plates containing the 25x (2 µL) concentrated compounds [26,27]. The medium used was Dulbecco's modified Eagle’s medium (DMEM), supplemented with 10% fetal bovine serum (FBS). Cells were incubated together with the compounds for 20 h at 37 °C, 5% CO2.
To measure cytotoxicity, 5 µL (equals 100 µM final) of resazurin was added to each well after incubation and incubated for further 3 h at 37 °C with 5% CO2. After the final incubation, fluorescence intensity […]
reader. CC50 values (concentration at 50% cytotoxicity) were calculated by normalizing the fluorescence readout, with 74 µg/mL tamoxifen as negative control (0%) and normal cell growth as positive control (100%). The concentration-dependent percentage cytotoxicity was fitted to a dose–response function (using Pipeline Pilot) and CC50 values were determined. […]

[2] = test system: C. neoformans ATCC 208821; assay: MIC, CO-ADD antifungal assay, C. neoformans; assay type: cell-based, Cryptococcus neoformans; settings: for MIC: Cryptococcus neoformans, ATCC208821, mean (n = 2)
Experimental: as §1, §2, §3, §4, §5, §6, §7, §8

MIC (C. albicans ATCC 90028)	MIC C.a. (C. albicans ATCC 90028; mean (n = 2))	MIC [2]	MIC C.n. ([2]; mean (n = 2))	SMILES	Hemolysis (HC10), concentration of compound at 10% hemolytic activity (human red blood cells)	IC50 at 20 h [1]
> 64.8 µM	no activity	> 64.8 µM	no activity	C=C[C@]1(C)C[C@@H](OC(=O)CSCCN(CC)CC)[C@]2(C)[C@H](C)CC[C@]3(CCC(=O)[C@H]32)[C@@H](C)[C@@H]1O [Compound 2, Tiamulin, reference compound]	>64.8 µM	> 64.8 µM
> 23.2 µM		0.72 µM		C=C[C@]1(C)C[C@@H](OC(=O)CNCCCNCCCCNCCCNCC(=O)O[C@@H]2C[C@@](C)(C=C)[C@@H](O)[C@H](C)[C@]34CCC(=O)[C@H]3[C@@]2(C)[C@H](C)CC4)[C@]2(C)[C@H](C)CC[C@]3(CCC(=O)[C@H]32)[C@@H](C)[C@@H]1O.O=C(O)C(F)(F)F.O=C(O)C(F)(F)F.O=C(O)C(F)(F)F.O=C(O)C(F)(F)F [Compound 9a, N^1,N^1′-(Butane-1,4-diyl)bis(N^3-(2-(((3aR,4R,5R,7S,8S,9R,9aS,12R)-8-hydroxy-4,7,9,12-tetramethyl-3-oxo-7-vinyldecahydro-4,9a-propanocyclopenta [8]annulen-5-yl)oxy)-2-oxoethyl)propane-1,3-diaminium) 2,2,2-trifluoroacetate]	>23.2 µM	> 23.2 µM
> 22.7 µM		≤ 0.18 µM		C=C[C@]1(C)C[C@@H](OC(=O)CNCCCNCCCCCCNCCCNCC(=O)O[C@@H]2C[C@@](C)(C=C)[C@@H](O)[C@H](C)[C@]34CCC(=O)[C@H]3[C@@]2(C)[C@H](C)CC4)[C@]2(C)[C@H](C)CC[C@]3(CCC(=O)[C@H]32)[C@@H](C)[C@@H]1O.O=C(O)C(F)(F)F.O=C(O)C(F)(F)F.O=C(O)C(F)(F)F.O=C(O)C(F)(F)F [Compound 9b, N^1,N^1′-(Hexane-1,6-diyl)bis(N^3-(2-(((3aR,4R,5R,7S,8S,9R,9aS,12R)-8-hydroxy-4,7,9,12-tetramethyl-3-oxo-7-vinyldecahydro-4,9a-propanocyclopenta [8]annulen-5-yl)oxy)-2-oxoethyl)propane-1,3-diaminium) 2,2,2-trifluoroacetate]	>22.7 µM	> 22.7 µM
> 22.5 µM		≤ 0.18 µM		C=C[C@]1(C)C[C@@H](OC(=O)CNCCCNCCCCCCCNCCCNCC(=O)O[C@@H]2C[C@@](C)(C=C)[C@@H](O)[C@H](C)[C@]34CCC(=O)[C@H]3[C@@]2(C)[C@H](C)CC4)[C@]2(C)[C@H](C)CC[C@]3(CCC(=O)[C@H]32)[C@@H](C)[C@@H]1O.O=C(O)C(F)(F)F.O=C(O)C(F)(F)F.O=C(O)C(F)(F)F.O=C(O)C(F)(F)F [Compound 9c, N^1,N^1′-(Heptane-1,7-diyl)bis(N^3-(2-(((3aR,4R,5R,7S,8S,9R,9aS,12R)-8-hydroxy-4,7,9,12-tetramethyl-3-oxo-7-vinyldecahydro-4,9a-propanocyclopenta [8]annulen-5-yl)oxy)-2-oxoethyl)propane-1,3-diaminium) 2,2,2-trifluoroacetate]	>22.5 µM	> 22.5 µM
> 22.3 µM		≤ 0.17 µM		C=C[C@]1(C)C[C@@H](OC(=O)CNCCCNCCCCCCCCNCCCNCC(=O)O[C@@H]2C[C@@](C)(C=C)[C@@H](O)[C@H](C)[C@]34CCC(=O)[C@H]3[C@@]2(C)[C@H](C)CC4)[C@]2(C)[C@H](C)CC[C@]3(CCC(=O)[C@H]32)[C@@H](C)[C@@H]1O.O=C(O)C(F)(F)F.O=C(O)C(F)(F)F.O=C(O)C(F)(F)F.O=C(O)C(F)(F)F [Compound 9d, N^1,N^1′-(Octane-1,8-diyl)bis(N^3-(2-(((3aR,4R,5R,7S,8S,9R,9aS,12R)-8-hydroxy-4,7,9,12-tetramethyl-3-oxo-7-vinyldecahydro-4,9a-propanocyclopenta [8]annulen-5-yl)oxy)-2-oxoethyl)propane-1,3-diaminium) 2,2,2-trifluoroacetate]	>22.3 µM	> 22.3 µM
10.9 µM		≤ 0.17 µM		C=C[C@]1(C)C[C@@H](OC(=O)CNCCCNCCCCCCCCCCNCCCNCC(=O)O[C@@H]2C[C@@](C)(C=C)[C@@H](O)[C@H](C)[C@]34CCC(=O)[C@H]3[C@@]2(C)[C@H](C)CC4)[C@]2(C)[C@H](C)CC[C@]3(CCC(=O)[C@H]32)[C@@H](C)[C@@H]1O.O=C(O)C(F)(F)F.O=C(O)C(F)(F)F.O=C(O)C(F)(F)F.O=C(O)C(F)(F)F [Compound 9e, N^1,N^1′-(Decane-1,10-diyl)bis(N^3-(2-(((3aR,4R,5R,7S,8S,9R,9aS,12R)-8-hydroxy-4,7,9,12-tetramethyl-3-oxo-7-vinyldecahydro-4,9a-propanocyclopenta [8]annulen-5-yl)oxy)-2-oxoethyl)propane-1,3-diaminium) 2,2,2-trifluoroacetate]	>21.9 µM	> 21.9 µM
21.5 µM		≤ 0.17 µM		C=C[C@]1(C)C[C@@H](OC(=O)CNCCCNCCCCCCCCCCCCNCCCNCC(=O)O[C@@H]2C[C@@](C)(C=C)[C@@H](O)[C@H](C)[C@]34CCC(=O)[C@H]3[C@@]2(C)[C@H](C)CC4)[C@]2(C)[C@H](C)CC[C@]3(CCC(=O)[C@H]32)[C@@H](C)[C@@H]1O.O=C(O)C(F)(F)F.O=C(O)C(F)(F)F.O=C(O)C(F)(F)F.O=C(O)C(F)(F)F [Compound 9f, N^1,N^1′-(Dodecane-1,12-diyl)bis(N^3-(2-(((3aR,4R,5R,7S,8S,9R,9aS,12R)-8-hydroxy-4,7,9,12-tetramethyl-3-oxo-7-vinyldecahydro-4,9a-propanocyclopenta [8]annulen-5-yl)oxy)-2-oxoethyl)propane-1,3-diaminium) 2,2,2-trifluoroacetate]	13.2 µM	8.3 µM
